pIC50: −log10 of the molar value.
Target: T1, Diacylglycerol O-acyltransferase 2 (Homo sapiens, UniProt Q96PD7)
T1 sequence (Q96PD7 whole entry): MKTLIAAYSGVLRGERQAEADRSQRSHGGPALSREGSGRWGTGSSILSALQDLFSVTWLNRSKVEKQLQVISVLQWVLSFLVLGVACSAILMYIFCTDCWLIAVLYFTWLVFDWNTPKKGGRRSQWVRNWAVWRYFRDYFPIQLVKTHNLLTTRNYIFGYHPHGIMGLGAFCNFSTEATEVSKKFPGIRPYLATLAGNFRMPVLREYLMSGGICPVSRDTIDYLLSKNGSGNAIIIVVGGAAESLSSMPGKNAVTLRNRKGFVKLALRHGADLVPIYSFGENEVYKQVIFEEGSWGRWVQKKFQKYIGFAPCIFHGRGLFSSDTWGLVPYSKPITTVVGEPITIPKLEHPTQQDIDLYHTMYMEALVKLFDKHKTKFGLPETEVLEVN
Assay: DGAT2 enzymatic activity assay
Description: DGAT2 activity was determined by measuring the amount of enzymatic product 13Ci8-triolein (13C-l,2,3-Tri(cis-9-octadecenoyl)glycerol) using the membrane prep mentioned above. The assay was carried out in ABgene 384-well assay plates in a final volume of 25 pL at rt. The assay mixture contained the following: assay buffer (100 mM Tris Cl, pH 7.0, 20 mM MgCl2, 5% ethanol), 25 pM of di olein, 5 μM of 13C oleoyl-CoA and 8 ng/pL of DGAT2 membrane.

- pIC50: 8.25
SMILES: C[C@H](n1c(=O)n(-c2cccc(OC(F)(F)C(F)F)c2)c2cc(F)c(C(=O)NC3(C)CCS(=O)(=O)CC3)cc21)C(C)(C)O [WO2022076495, EXAMPLE 77a]

— BindingDB's records for patent WO2022076495 (MERCK SHARP & DOHME CORP., 2022)
